TGI and GI50 data for 13 compounds are collected here from PubChem BioAssay (NCI).

Holding throughout (assay): NCI anticancer screen, dose series, 48 h
Test [1] concerns HT29 colon.
In test [2] the test system is MCF7 breast.
Test [3] has as its system HCT-116 colon.
The test system of test [4] is DU-145 prostate.
In test [5] the test system is OVCAR-3 ovarian.
Test [6] has as its system SK-MEL-5 melanoma.
Test [7] concerns SK-OV-3 ovarian.
Test [8] concerns OVCAR-8 ovarian.
For test [9], the system named is IGROV1 ovarian.
Test [10] relates to NCI-H226 lung.

Structures are written as SMILES. Several values for one entry are separate records, joined by “and”; a condition that tells them apart may be missing. Identical values can stand only once.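 96-well plates; 48 h exposure; 5 concentrations. Endpoints by linear interpolation between flanking doses. Not reached: highest tested concentration assigned. Abbreviation: GI50, concentration required for 50% inhibition of growth. TGI is the concentration that stops growth completely.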

Turning to `O=C1O/C(=C\c2ccc(O)cc2)C(c2ccc(O)c(Cl)c2)=C1Br`, the TGI in [1] worked out at 29.9 µM; in test [2], 37.1 µM; in [3], 23.6 µM; in test [4] it was 27.6 µM; in test [5] it was 21.1 µM; in test [6] it was 25.9 µM. Also, the results for the TGI in [7], in test [8] and in test [9] were 37.2 µM, 73.8 µM and 25.7 µM, respectively.
Regarding `COc1ccc(CC2C(=O)NC(C)C(=O)N(C)C3Cc4ccc(cc4)Oc4cc(ccc4O)CC(C(=O)NC(C)C(=O)NC(C)C(=O)N2C)N(C)C3=O)cc1` (stereo unspecified), the GI50 in [10] is 0.00929 µM; in [1] it was less than 0.0001 µM; in [2], less than 0.0001 µM; in [3] it was less than 0.0001 µM; in test [5], 0.244 nM; in [6] it was 0.00102 µM. Further, the GI50 was 0.00034 µM in test [8] and less than 0.0001 µM in test [9]. Moreover, the TGI was 0.624 µM in test [10]; 0.0347 µM and 0.0161 µM and 0.152 µM in test [1]; 0.112 µM and 0.0554 µM in test [3]; 0.00288 µM in [4]; 0.0438 µM in test [5]; 0.0532 µM and 0.127 µM and 0.0679 µM in test [6]. For the same compound, the TGI in test [8] is 0.144 µM and 0.0379 µM; in [9], 0.0203 µM.
On to `O=C(CCCN1CCc2[nH]c3cc(F)ccc3c2C1)c1ccc(F)cc1`, for which the TGI amounted to 38.7 µM in test [10]; 20.5 µM in test [1]; 18.3 µM in [2]; 24.2 µM in test [3]; 26.1 µM in test [4]; 28.1 µM in test [5]. Further, the TGI in test [6] turned out to be 30.8 µM; in test [8] it was 28.4 µM; in test [9], 30.2 µM.
`CSc1nc2c(ncn2C2OCC(O)C(O)C2O)c(=O)[nH]1` (stereo unspecified): the TGI in test [10], in test [1], in [2], in test [3], in test [5] and in test [6] was greater than 100 µM throughout. The TGI in [7], in test [8] and in test [9] was greater than 100 µM each time.
Regarding `Cc1ccc(Nc2nnc3n2S(=O)(=O)c2cc(C)c(Cl)cc2S3)cc1`, the TGI is 37.4 µM in [10]; 38.5 µM in [1]; greater than 100 µM in test [2]; 67.2 µM in [3]; greater than 100 µM in test [4]; 4.63 µM in test [5]. The TGI in [6] was 29.6 µM; in [8], 33.1 µM; in [9] it was greater than 100 µM.
`BrCC[P+](c1ccccc1)(c1ccccc1)c1ccccc1`: the TGI in test [1] was found to be 30.2 µM; in [2], 30.5 µM; in test [3], 8.38 µM; in [4] it was 19.8 µM; in test [5], 11.7 µM; in test [6] it was 26.3 µM. Besides, the TGI in test [7] stood at 66.4 µM; in test [8], 21.9 µM; in [9], 29.1 µM.
For `CCOc1cc(C=O)ccc1O`, the TGI in test [10], in test [1], in [2], in test [3], in test [4] and in test [5] was greater than 100 µM each time. Besides, the TGI in [6], in [8] and in [9] was greater than 100 µM in each case.
Consider `CC(=O)c1c(O)c(C)c(O)c2c1OC1=CC(=O)C(C(C)=O)C(=O)C12C` (stereo unspecified), for which the GI50 in test [10] is 6.93 µM and 18.3 µM; in [1], 6.28 µM and 25.7 µM; in test [2], 5.75 µM and 12 µM; in test [3], 10.9 µM and 22.3 µM; in test [5], 1050 nM and 5740 nM; in test [6] it was 3.56 µM and 16.5 µM. The GI50 was 9.68 µM and 26.5 µM in test [7]; 4.84 µM and 14.1 µM in test [8]; 5.63 µM and 17.9 µM in [9]. The TGI in [10] is 20.6 µM and 60.2 µM; in [1] it was 29.3 µM and 70.2 µM; in test [2] it was 24.7 µM and 26 µM; in test [3], 45.7 µM and 66.3 µM; in test [5], 3.72 µM and 15.5 µM; in [6], 9.29 µM and 33.8 µM. In addition, the TGI was 56.1 µM and 80.6 µM in test [7]; 22.3 µM and 52.2 µM in test [8]; 38.5 µM and 75.4 µM in test [9].
For the compound `C=C1C(=O)C[C@@]23CCC[C@@]12CC(O)C3` (stereo partly specified), the TGI was 45.8 µM in [10]; 33.2 µM in test [1]; 33.6 µM in [2]; 44.5 µM in [3]; 33.7 µM in test [5]; greater than 39.5 µM in test [6]. For the same compound, the TGI was 67.5 µM in [7], greater than 100 µM in test [8] and 12.8 µM in [9].
Turning to `NC(CO)c1ccccc1` (stereo unspecified), the TGI in [10], in test [1], in [3], in [5], in [6] and in test [7] was greater than 100 µM each time. The TGI in test [8] and in test [9] was greater than 100 µM in each case.
As to `C=CC1(CCC(Br)C(C)(C)Cl)CO1` (stereo unspecified), the TGI in test [1], in test [2], in test [3], in [4], in test [5] and in test [6] was greater than 10 µM in each case. Further, the TGI in [7], in test [8] and in test [9] was greater than 10 µM throughout.
`COc1cc2cc3c4c(cc(OC)c(OC)c4c2cc1OC)CCN3C(=O)OCCBr`: the TGI is 2.42 µM in test [10]; greater than 100 µM in test [1]; greater than 100 µM in test [3]; greater than 100 µM in test [5]; greater than 100 µM in test [6]; greater than 100 µM in [7]. Also, the TGI in [8] and in test [9] was greater than 100 µM throughout.
Regarding `C/C(=N\O)c1ccc(Nc2c3ccccc3nc3occc23)cc1`, the TGI in [10] was greater than 25.9 µM; in test [1] it was 0.72 µM; in test [3], 2.52 µM; in test [4], greater than 15.3 µM; in [5], greater than 50 µM; in [6], 6.77 µM. Also, the TGI in [7] stood at 5.92 µM; in test [8], 7.34 µM; in test [9], 8.59 µM.
